Test results published in ChEMBL document CHEMBL1155831, “The structural basis for peptidomimetic inhibition of eukaryotic ribonucleotide reductase: a conformationally flexible pharmacophore” (J Med Chem, 2008).

Test: Inhibition of Saccharomyces cerevisiae ribonucleotide reductase

IC50	Substance
44 µM	H-FTFNEDF-OH
30 µM	H-NFDDDF-OH
